{"source": "patent US7033593B2", "about": "“Immunogen comprising an HIV envelope protein, a ligand and H2 peptide” (priority 2000, dated 2006)", "key": {"[1]": {"system": "sCD4-gp140 (HIV 89.6 gp140)", "experiment": "SPR binding of HR-2 peptides to sCD4-gp140 complex", "procedure": "SPR biosensor measurements were determined on a BIACORE 3000 (BIACORE Inc., Uppsala, Sweden) instrument. […] Binding of proteins and peptides was monitored in real-time at 25° C. and with a continuous flow of PBS, pH 7.4 at […]. Analyte (proteins and peptides) were removed and the sensor surfaces were regenerated following each cycle of binding by single or duplicate […] of regeneration solution (10 mM glycine-HCl, pH 2.5 or 10 mM NaOH).\nAll analyses were performed using the non-linear fit method of O'Shannessy et al. (O'Shannessy et al, Anal. Biochem. 205:132–136 (1992)) and the BIAevaluation 3.0 software (BIACORE Inc). Rate and equilibrium constants were derived from curve fitting to the Langmuir equation for a simple bimolecular interaction (A+B=AB).\nA blank chip served as an in-line reference surface for subtraction of non-specific binding and bulk responses.\nSurface Plasmon Resonance Biosensor Measurements. SPR biosensor measurements were determined on a BIACORE 3000 (BIACORE Inc., Uppsala, Sweden) instrument. […] A blank in-line reference surface (activated and de-activated for amine coupling) was used to subtract non-specific or bulk responses. Binding of proteins and peptides (biotinylated or free DP178, T649Q26L, DP178-scrambled) was monitored in real-time at 25° C. with a continuous flow of PBS (150 mM NaCl, 0.005% surfactant p20), pH 7.4 at 10–30 μl/min. Analyte (proteins and peptides) were removed and the sensor surfaces were regenerated following each cycle of binding by single or duplicate 5–10 μl pulses of regeneration solution (10 mM glycine-HCl, pH 2.5 or 10 mM NaOH)."}, "cleaved HIV 89.6 gp140": {"biological_target": "cleaved HIV 89.6 gp140 (Human immunodeficiency virus type 1 group M subtype B, UniProt Q73372)", "sequence (Q73372 32-681)": "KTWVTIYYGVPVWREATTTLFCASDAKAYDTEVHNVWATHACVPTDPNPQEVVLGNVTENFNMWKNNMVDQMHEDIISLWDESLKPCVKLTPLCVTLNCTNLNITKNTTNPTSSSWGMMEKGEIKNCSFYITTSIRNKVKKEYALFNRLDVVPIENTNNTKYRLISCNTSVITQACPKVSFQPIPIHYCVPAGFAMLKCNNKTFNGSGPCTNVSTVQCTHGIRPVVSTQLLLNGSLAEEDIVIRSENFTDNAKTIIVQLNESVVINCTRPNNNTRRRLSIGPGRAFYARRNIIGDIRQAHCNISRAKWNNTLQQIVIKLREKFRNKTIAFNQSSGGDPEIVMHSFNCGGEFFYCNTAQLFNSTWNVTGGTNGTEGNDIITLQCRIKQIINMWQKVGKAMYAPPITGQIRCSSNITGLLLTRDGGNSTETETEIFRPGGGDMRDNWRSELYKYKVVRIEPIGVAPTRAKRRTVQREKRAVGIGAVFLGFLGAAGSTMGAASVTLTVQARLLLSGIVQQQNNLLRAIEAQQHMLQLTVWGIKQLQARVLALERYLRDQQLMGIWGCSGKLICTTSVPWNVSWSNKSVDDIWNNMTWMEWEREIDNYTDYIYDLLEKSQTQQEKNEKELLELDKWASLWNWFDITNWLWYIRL", "format": "binding", "details": "no sCD4"}, "89.6 gp120": {"biological_target": "89.6 gp120 (Human immunodeficiency virus type 1 group M subtype B, UniProt Q73372)", "sequence (Q73372 32-508)": "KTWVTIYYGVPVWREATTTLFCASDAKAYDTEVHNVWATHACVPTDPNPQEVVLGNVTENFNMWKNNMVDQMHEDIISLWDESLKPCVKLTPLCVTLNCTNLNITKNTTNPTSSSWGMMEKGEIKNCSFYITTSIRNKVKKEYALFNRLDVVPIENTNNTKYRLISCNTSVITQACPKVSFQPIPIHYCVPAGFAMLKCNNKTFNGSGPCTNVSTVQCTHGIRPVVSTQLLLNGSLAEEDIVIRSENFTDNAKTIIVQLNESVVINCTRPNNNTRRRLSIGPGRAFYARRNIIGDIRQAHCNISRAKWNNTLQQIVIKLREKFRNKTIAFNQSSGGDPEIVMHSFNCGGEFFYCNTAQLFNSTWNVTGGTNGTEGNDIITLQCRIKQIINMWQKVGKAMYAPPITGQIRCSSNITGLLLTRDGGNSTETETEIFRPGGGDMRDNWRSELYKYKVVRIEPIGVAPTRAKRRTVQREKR", "format": "binding, HIV-1 89.6", "description": "Biotinylated DP178 (FIG. 28A), scrDP178 (FIG. 28B) and scrDP107 (not shown) were attached to a SA-sensor chip through biotin-streptavidin interactions. 200–300 RU of each peptide was attached to individual flow cells of the SA chip. The scrDP107 surface was used as in-line reference subtraction of non-specific and bulk effect. All data shown here were derived after subtraction of signals from this reference surface. […] Data are a representative experiment of 3 performed.\nThe scrDP107 surface was used as a reference surface for subtracting bulk and non-specific binding. […] Soluble gp120 proteins, mabs or gp120 proteins pre-incubated with mabs were then injected at 20 μl/min for 2–3 min over each of the peptide-SA surface. Binding data was acquired following in-line reference subtraction of binding from the scrDP107 (HR-1) surface.\nIn these experiments (the “SA-chip assay”), biotinylated HR-2 peptides DP178 and scrDP178 were immobilized on adjacent flow cells of a streptavidin sensor chip (SA chip). […] The non-specific and bulk effect was measured over scrDP107 surface and this surface was used for automated in-line reference subtraction."}, "HIV 89.6 gp140": {"biological_target": "HIV 89.6 gp140 (Human immunodeficiency virus type 1 group M subtype B, UniProt Q73372)", "sequence (Q73372 32-681)": "as the sequence (Q73372 32-681) above", "format": "binding", "details": "biotinylated peptide"}, "recombinant ADA gp41": {"system": "recombinant ADA gp41", "experiment": "SPR binding of HR-2 peptide to immobilized recombinant gp41", "design": "species or system HIV ADA", "procedure": "FIGS. 16A–16F show constitutive binding of HR-2 peptides to immobilized gp41 and CD4 induced binding to gp140. FIGS. 16A and 16B. Binding of DP178 (12.5 to 100 μg/ml) to immobilized ADA gp41 and CD4-gp140 (FIG. 16B) surfaces. FIGS. 16C and 16D. […] FIGS. 16E and 16F. Scatchard plots of RU vs RU/C for DP178 binding to gp41 (FIG. 16E) and to CD4-gp140 (FIG. 16F). Data are representative of 2 separate experiments.\nBinding of HR-2 peptide to recombinant gp41. To directly determine if HR-2 peptides can constitutively bind to purified gp41, recombinant ADA gp41 was immobilized to a sensor surface and the binding of HR-2 peptide, DP178, determined. […] To compare the binding of DP178 HR-2 peptide to recombinant gp41 versus HIV 89.6 gp140-sCD4 complex, the equilibrium binding contants (Keq) of HR-2 binding to both were measured. While the Keq of DP178 binding to recombinant gp41 was weak at 26.7 μM (FIG. 16E), the Keq of DP178 binding to sCD4-gp140 was 10 fold stronger at 1.7 μM (FIG. 16F)."}, "[2]": {"system": "gp41-gp120-sCD4 complex (ADA gp41, 89.6 gp120)", "experiment": "SPR binding of DP178 to gp41-gp120 and gp41-gp120-sCD4 complexes", "design": "species or system HIV", "details": "DP178 50 μg/ml", "procedure": "FIGS. 17A and 17B show induction of HR-2 peptide binding to gp120-gp41 complex. […] Soluble 89.6 gp120 (100 μg/ml) or a gp120-CD4 mixture (gp120 pre-incubated with 0.3 mg/ml of CD4 for 30 min) was injected at 5 μl/min for 10 min over a sensor surface immobilized with ADA gp41. At the end of the injections, wash buffer (PBS) was allowed to flow until the surface was stable with no baseline drift. Roughly 300 RU of gp120 and 850 RU of gp120-CD4 formed stable complexes with the immobilized gp41 surface. […] Thus both surfaces were stable and had equivalent amount of associated gp120 or gp120-CD4.\nIn the preparation of HIV 89.6 gp140 envelope, there is uncleaved gp140, and cleaved gp140 components of gp120 and gp41. Thus, it is possible that HR-2 peptide could be induced to bind uncleaved gp140 and/or could be induced to bind to cleaved gp120 and gp41."}, "[3]": {"biological_target": "T8-gp120 (HIV 89.6 gp120) (Human immunodeficiency virus type 1 group M subtype B, UniProt Q73372)", "sequence (Q73372 32-508)": "as the sequence (Q73372 32-508) above", "format": "binding", "details": "SPR"}, "[4]": {"details": "Scatchard plot, read-out: Keq (equilibrium binding constant)"}, "[5]": {"details": "A32-induced gp120, two-component dissociation"}}, "note": "“Also recorded” adds a separate entry of the source. Read-outs that look alike come from different tables or passages of the source.", "data": [{"substance": "enfuvirtide", "values": [{"measurement": "binding to sCD4-gp140 surface (in words)", "setting": "[1]; SPR", "result": "much higher binding; also recorded: bound specifically"}, {"measurement": "Kd", "setting": "[1]; [4]", "result": 1700, "unit": "nM"}, {"measurement": "kd (off-rate)", "setting": "[1]; cleaved gp140 after sCD4", "result": 0.0056, "unit": "s⁻¹"}, {"measurement": "Kd", "setting": "[1]; sCD4-gp140 complexes, without CCR5-D1, read-out: Kd", "result": 700, "unit": "nM"}, {"measurement": "Keq stronger than for recombinant gp41", "setting": "[1]; sCD4-gp140 vs gp41", "result": 10, "unit": "fold"}, {"measurement": "Rm (maximal binding at equilibrium)", "setting": "[1]; with sCD4", "result": 320, "unit": "RU"}, {"measurement": "increase of Rm by soluble CD4", "setting": "[1]; with vs without sCD4", "result": "~10", "unit": "fold"}, {"measurement": "Rm (maximal binding at equilibrium)", "setting": "cleaved HIV 89.6 gp140", "result": 35, "unit": "RU"}, {"measurement": "binding to cleaved gp140 (in words)", "setting": "cleaved HIV 89.6 gp140", "result": "Low level binding"}, {"measurement": "binding higher than expected due to mass effect only", "setting": "89.6 gp120; +A32", "result": 3, "unit": "fold"}, {"measurement": "faster off-rate", "setting": "89.6 gp120; [5]", "result": 0.020, "unit": "s⁻¹"}, {"measurement": "slower off-rate", "setting": "89.6 gp120; [5]", "result": 0.0016, "unit": "s⁻¹"}, {"measurement": "binding signal of A32-gp120 over peptide surface", "setting": "89.6 gp120; gp120 pre-incubated with A32 (+A32)", "result": "~400", "unit": "RU"}, {"measurement": "immunoprecipitation of gp41 and gp140 (in words)", "setting": "HIV 89.6 gp140", "result": "constitutively immunoprecipitated"}, {"measurement": "binding to immobilized gp41 (in words)", "setting": "recombinant ADA gp41; SPR", "result": "bound well"}, {"measurement": "Kd", "setting": "recombinant ADA gp41; [4]", "result": 26700, "unit": "nM"}, {"measurement": "binding to gp41-gp120(-sCD4) complex compared to gp41 (in words)", "setting": "[2]", "result": "upregulated; also recorded: higher binding"}, {"measurement": "binding to gp120 on T8 mab surface (in words)", "setting": "[3]", "result": "neither HR-2 peptide bound"}]}]}
